Values of other authors in patent publication US6368586B1, “Methods and compositions for enhancing the bioadhesive properties of polymers” (Brown University Research Foundation, priority 1996, dated 2002).
Where two headings read alike, the source gives them in different places.

Acid Ionization Constants (pKa at 25° C.) for Aqua Ions	Acid Ionization Constants (pKa at 25° C.) for Aqua Ions (listed as Fe^3+)	Compound	Acid Ionization Constants (pKa at 25° C.) for Aqua Ions (listed as Ni^3+)
4.9		[Al+3] [Al^3+]	
8.3	2.2	[Fe+2] [Fe^2+]	
11.4		[Mg+2] [Mg^2+]	

Continued, compound first:

Compound	Acid Ionization Constants (pKa at 25° C.) for Aqua Ions	Acid Ionization Constants (pKa at 25° C.) for Aqua Ions (listed as Fe^3+)	Acid Ionization Constants (pKa at 25° C.) for Aqua Ions (listed as Ni^3+)
[Ba+2] [Ba^2+]	13.2		
[Ca+2] [Ca^2+]	12.6		
[Cu+2] [Cu^2+]	8.0		
[Ni+2] [Ni^2+]	10.6		9.7
